Measured values as given in the supplement of paper PMC13380429.

Columns and labels:
Settings in all cases: 72 h
Caco-2 [1] = assay: drug sensitivity score (DSS) for viability; higher = more toxic; extreme values may be limits of the assay
HepG2 [2] = assay: as above
Calu-3 [3] = assay: as above
U2OS [4] = assay: as above
Vero E6 [5] = assay: as above
Caco-2 [6] = assay: relative viability EC50 (midpoint between 100% and the lowest measured viability); higher = less toxic
HepG2 [7] = assay: as above
Calu-3 [8] = assay: as above
U2OS [9] = assay: as above
Vero E6 [10] = assay: as above
Caco-2 [11] = assay: cell viability relative to DMSO; higher = less toxic
HepG2 [12] = assay: as above
Calu-3 [13] = assay: as above
U2OS [14] = assay: as above
Vero E6 [15] = assay: as above

SMILES | drug sensitivity score (Caco-2 [1]) | drug sensitivity score (HepG2 [2]) | drug sensitivity score (Calu-3 [3]) | drug sensitivity score (U2OS [4]) | drug sensitivity score (Vero E6 [5]) | relative viability EC50 (Caco-2 [6]) [µM] | relative viability EC50 (HepG2 [7]) [µM] | relative viability EC50 (Calu-3 [8]) [µM] | relative viability EC50 (U2OS [9]) [µM] | relative viability EC50 (Vero E6 [10]) [µM] | cell viability (Caco-2 [11]; 1 nM) [%] | cell viability (Caco-2 [11]; 10 nM) [%] | cell viability (Caco-2 [11]; 100 nM) [%] | cell viability (Caco-2 [11]; 1000 nM) [%] | cell viability (Caco-2 [11]; 10000 nM) [%] | cell viability (HepG2 [12]; 1 nM) [%] | cell viability (HepG2 [12]; 10 nM) [%] | cell viability (HepG2 [12]; 100 nM) [%] | cell viability (HepG2 [12]; 1000 nM) [%] | cell viability (HepG2 [12]; 10000 nM) [%] | cell viability (Calu-3 [13]; 1 nM) [%] | cell viability (Calu-3 [13]; 10 nM) [%] | cell viability (Calu-3 [13]; 100 nM) [%] | cell viability (Calu-3 [13]; 1000 nM) [%] | cell viability (Calu-3 [13]; 10000 nM) [%] | cell viability (U2OS [14]; 1 nM) [%] | cell viability (U2OS [14]; 10 nM) [%] | cell viability (U2OS [14]; 100 nM) [%] | cell viability (U2OS [14]; 1000 nM) [%] | cell viability (U2OS [14]; 10000 nM) [%] | cell viability (Vero E6 [15]; 1 nM) [%] | cell viability (Vero E6 [15]; 10 nM) [%] | cell viability (Vero E6 [15]; 100 nM) [%] | cell viability (Vero E6 [15]; 1000 nM) [%] | cell viability (Vero E6 [15]; 10000 nM) [%]
COc1ccc(/C=C/CCCCOc2ccc(C(=O)c3cccc(C(=O)O)c3)cc2CCC(=O)O)cc1 | 0 | 0 | 0 | 0 | 0 | > 10 | > 10 | > 10 | > 10 | > 10 | 96.6 | 94 | 102 | 102 | 95.3 | 102 | 95.3 | 109 | 110 | 106 | 102 | 84.6 | 102 | 100 | 111 | 95.8 | 96.2 | 96.3 | 100 | 98.7 | 93.9 | 96.3 | 100 | 94.4 | 99
CCOC(=O)COc1ccc2c(=O)cc(-c3ccccc3)oc2c1 [efloxate] | 0 | 0 | 3 | 0 | 0 | > 10 | > 10 | > 10 | > 10 | > 10 | 93 | 88.6 | 101 | 101 | 96.1 | 97.9 | 100 | 98.3 | 99.2 | 99.3 | 105 | 98.9 | 85.8 | 83.5 | 99.1 | 95.4 | 95.5 | 98.7 | 96.7 | 99.2 | 97 | 100 | 91.9 | 101 | 106
CONC(=N)c1ccc(-c2ccc(-c3ccc(C(=N)NOC)cc3)o2)cc1 [pafuramidine] | 0 | 0 | 0 | 0 | 0 | > 10 | > 10 | > 10 | > 10 | > 10 | 92.3 | 97 | 92.5 | 97.5 | 87.9 | 94.4 | 106 | 99.2 | 92.9 | 110 | 98.3 | 97.4 | 95.4 | 96 | 98.5 | 99.1 | 99.8 | 96.9 | 102 | 98.9 | 98.2 | 97.5 | 96 | 93.9 | 107
NNC(=O)c1ccncc1 [isoniazid] | 0 | 0 | 0 | 0 | 0 | > 10 | > 10 | > 10 | > 10 | > 10 | 97.4 | 99.4 | 103 | 91.7 | 97.6 | 107 | 108 | 100 | 103 | 93.7 | 110 | 98.7 | 100 | 99.2 | 99.8 | 101 | 96.6 | 101 | 96.7 | 102 | 97.8 | 106 | 97.9 | 97.9 | 98.4
BrC1C(Br)C(Br)C(Br)C(Br)C1Br (stereo not given) [1,2,3,4,5,6-hexabromocyclohexane] | 0 | 0 | 0 | 0 | 0 | > 10 | > 10 | > 10 | > 10 | > 10 | 96.4 | 93.6 | 97.3 | 102 | 98.4 | 95.8 | 106 | 89.1 | 99.8 | 90.2 | 106 | 104 | 104 | 87.3 | 105 | 99.1 | 96.4 | 101 | 95.1 | 101 | 99.7 | 107 | 101 | 105 | 93.9
Cc1n[nH]c2ccc(-c3cncc(OC[C@@H](N)Cc4ccccc4)c3)cc12 | 5.3 | 11.3 | 2.9 | 7.3 | 9.7 | 2.28 | 1.04 | 3.43 | 2.18 | 1.3 | 96.7 | 102 | 97.8 | 92.2 | 27.3 | 103 | 95.8 | 106 | 53 | 1.7 | 105 | 102 | 93.4 | 103 | 41.3 | 99.6 | 99.8 | 97.7 | 88.3 | 2.8 | 101 | 106 | 96.3 | 66 | 5
O=C1c2c(O)cc(O)cc2O[C@H](c2cc(O)c(O)c(O)c2)[C@H]1O [dihydromyricetin] | 0 | 0 | 0 | 0 | 0 | > 10 | > 10 | > 10 | > 10 | > 10 | 102 | 92.3 | 95.6 | 100 | 97.4 | 95.8 | 94.5 | 98.5 | 94.7 | 103 | 105 | 98.2 | 93.7 | 111 | 90.3 | 102 | 95.8 | 103 | 106 | 104 | 96.1 | 96 | 96.4 | 98.4 | 103
OC(c1ccccc1)C1CCN(CCc2ccccc2)CC1 (stereo not given) | 0 | 0 | 0 | 0 | 0 | > 10 | > 10 | > 10 | > 10 | > 10 | 98.4 | 95.2 | 102 | 101 | 95.4 | 88.4 | 110 | 96.7 | 105 | 114 | 97.3 | 85 | 111 | 108 | 104 | 101 | 96.7 | 102 | 98 | 101 | 96.3 | 94.1 | 93.5 | 93.8 | 106
O=S(=O)(c1ccccc1F)N1CCOc2c(N3CCNCC3)cccc21 [R-1485] | 0 | 0 | 0 | 0 | 0 | > 10 | > 10 | > 10 | > 10 | > 10 | 89.3 | 98.6 | 93 | 96.3 | 95.6 | 102 | 101 | 101 | 93.6 | 96.7 | 96.5 | 100 | 98.8 | 100 | 90.8 | 96.2 | 96.5 | 93.6 | 97.6 | 92.8 | 105 | 105 | 99.2 | 97.3 | 108
Cn1c(NCCN(CCO)CCCc2ccc([N+](=O)[O-])cc2)cc(=O)n(C)c1=O [nifekalant] | 1.8 | 0 | 0 | 0 | 0 | > 10 | > 10 | > 10 | > 10 | > 10 | 107 | 96.7 | 86.9 | 90.8 | 92.5 | 109 | 106 | 94 | 86.1 | 109 | 96.2 | 103 | 104 | 110 | 95.3 | 95.1 | 94.3 | 98.9 | 97.7 | 99.4 | 89.8 | 102 | 91.6 | 102 | 104
O=C(Nc1cc(C(F)(F)F)cc(C(F)(F)F)c1)Nc1c(Br)cc(Br)cc1-c1nnn[nH]1 [NS-5806] | 0 | 0 | 0 | 0 | 0 | > 10 | > 10 | > 10 | > 10 | > 10 | 93.7 | 97.8 | 97.1 | 98.2 | 91.7 | 107 | 95.3 | 106 | 96.6 | 108 | 94.2 | 95.4 | 95.3 | 98.2 | 87.9 | 98.6 | 103 | 94.6 | 105 | 98.9 | 98.8 | 99.2 | 105 | 102 | 102
O=S(=O)(O)CCSSCCS(=O)(=O)O [dimesna] | 0 | 0 | 1.4 | 0 | 0 | > 10 | > 10 | > 10 | > 10 | > 10 | 95.7 | 99.5 | 101 | 98.5 | 92.5 | 94.6 | 98.8 | 102 | 98.7 | 97.7 | 96.8 | 96.3 | 85.7 | 90.7 | 86.2 | 104 | 98.7 | 103 | 104 | 101 | 101 | 108 | 104 | 98.5 | 100
COc1cc(O)c(C(=O)c2ccccc2)cc1S(=O)(=O)O [sulisobenzone] | 0 | 0 | 0 | 0 | 0 | > 10 | > 10 | > 10 | > 10 | > 10 | 104 | 96.3 | 102 | 91.8 | 103 | 93.3 | 101 | 99.8 | 99.3 | 98.3 | 100 | 106 | 98.1 | 109 | 102 | 103 | 94.8 | 98.4 | 94.6 | 98.7 | 103 | 99.1 | 95.7 | 95.9 | 89.9
Oc1ccc2ccccc2c1 [beta-naphthol] | 0.6 | 0 | 0 | 0 | 0 | > 10 | > 10 | > 10 | > 10 | > 10 | 102 | 90.3 | 99.1 | 89.8 | 83.2 | 94 | 90.7 | 102 | 89.1 | 99.4 | 114 | 98.4 | 104 | 114 | 116 | 102 | 99.6 | 104 | 97.2 | 104 | 94.4 | 99.5 | 98.7 | 104 | 90.7
